Marks after values point to notes of the source that are not given here.
What was measured:
mice [1] = test: Paracetamol liver damage and pre-treatment with CP: indicator substances in hepatic tissue and blood; type: in vivo; conditions: for Cysteine / Cystine / Glycogen / Non-protein SH / Oxygen radicals / Protein SH / Total SH / AlAT / AspAT: CP 1.2 mmol/kg pre-treatment, 12 h later paracetamol 600 mg/kg i.p. or control solution; for Cysteine / Cystine / Glycogen / Non-protein SH / Oxygen radicals / Protein SH / Total SH: tissue after another 3 h; for AlAT / AspAT: blood serum, blood after another 3 h; for concentration of oxygen radicals / concentration of sulfhydryl groups / free cysteines in the hepatic tissue / glycogen in the hepatic tissue / enzymes in the blood serum released from the liver (AlAT, AspT): paracetamol 600 mg/kg single dose, CP pre-treatment 1.2 mmol/kg; for enzymes in the blood serum released from the liver (AlAT, AspT): within 3 hours
Method: (§1) The mice were pre-treated using 1.2 mmol CP/kg, and 12 hours later they were treated with the control solution or 600 mg of paracetamol/kg of body weight i.p. Hepatic tissue and blood were extracted after another 3 hours, and the indicator substances were measured.

mice [2] = test: Time-dosage dependency: GSH in hepatic tissue after CP injection; type: in vivo; conditions: for GSH % of control / GSH: mice
mice [3] = test: Toxic effects of CP under in-vivo conditions; conditions: up to a dose of 2.4 mmol CP/kg of body weight
Method: as §1

Hep G2 cells = test: Cytotoxicity of paracetamol and protective action of CP on permanent hepatic cell line; type: cell-based
Method: The cells were kept for 10 days in a medium that contained paracetamol (1 mM). […] The concentrations of the indicator substances were measured at the end of the period of exposure (Table 3). […] It is therefore recommended to choose higher AA concentrations for later experiments.

[4] = CP 1.2 mmol/kg, 8 h after injection
[5] = CP 2.4 mmol/kg, 4 h after injection
[6] = Hep G2 cells, 10 days, AA 1 mM, simultaneous CP 2 mM
[7] = Hep G2 cells, 10 days, AA 1 mM, CP 2 mM

| SMILES | Cysteine (mice [1]) | Cystine (mice [1]) | Glycogen (mice [1]) | Non-protein SH (mice [1]) | Oxygen radicals (mice [1]) | Protein SH (mice [1]) | Total SH (mice [1]) | AlAT (mice [1]) [units/l] | AspAT (mice [1]) [units/l] | concentration of oxygen radicals (mice [1]) | concentration of sulfhydryl groups (mice [1]) | free cysteines in the hepatic tissue (mice [1]) | glycogen in the hepatic tissue (mice [1]) | enzymes in the blood serum released from the liver (AlAT, AspT) (mice [1]) | L-cysteine and cystine concentrations (Hep G2 cells; [6]) | free radicals (Hep G2 cells; [6]) | also measured |
| --- | --- | --- | --- | --- | --- | --- | --- | --- | --- | --- | --- | --- | --- | --- | --- | --- | --- |
| CC1(C(=O)O)NC(C(=O)O)CS1 (centres unmarked) [CP, 2-methyl-thiazolidine-2,4-dicarboxylic acid] | 0.240^a ± μmol/g wet weight of the liver | 0.020^a ± μmol/g wet weight of the liver | 12.59 ± 0.21 mg/g wet weight of the liver | 3.81^a ± μmol/g wet weight of the liver | 0.120^a ± μmol/g wet weight of the liver | 13.27^a ± μmol/g wet weight of the liver | 17.08^a ± μmol/g wet weight of the liver | 20 | 199 | significantly reduced | reduced the decrease | significantly increased | significantly increased | suppressed the increase | more than compensated | prevented | increase of glutathione concentration in the hepatic tissue (mice [2]; after 12 hours, 1.2 or 2.4 mmol/kg of body weight): could still be detected; GSH % of control (mice [2]; CP 1.2 mmol/kg, 1 h after injection): 117.5 % of control; GSH % of control (mice [2]; CP 1.2 mmol/kg, 4 h after injection): 87.2 % of control; GSH (mice [2]; [4]): 6.48 ± 0.67 μmol/g of wet weight; GSH % of control (mice [2]; [4]): 108.5 % of control; GSH % of control (mice [2]; CP 1.2 mmol/kg, 12 h after injection): 122.0 % of control; GSH % of control (mice [2]; CP 2.4 mmol/kg, 1 h after injection): 127.6 % of control; GSH (mice [2]; [5]): 5.76 ± 0.42 μmol/g of wet weight; GSH % of control (mice [2]; [5]): 90.3 % of control; GSH % of control (mice [2]; CP 2.4 mmol/kg, 8 h after injection): 112.0 % of control; GSH % of control (mice [2]; CP 2.4 mmol/kg, 12 h after injection): 154.5 % of control; glutathione concentration in the hepatic tissue (mice [2]; within one hour post application of 1.2 or 2.4 mmol/kg of body weight): rose considerably; toxic effects (mice [3]): no toxic effects; effect against high concentrations of paracetamol in the hepatic cell model (Hep G2 cells; Hep G2 cell culture): protective effect |
| CC(=O)Nc1ccc(O)cc1 [Paracetamol, paracetamol] | 0.062^a ± μmol/g wet weight of the liver | 0.025^a ± μmol/g wet weight of the liver | 8.45^a ± mg/g wet weight of the liver | 0.22^a ± μmol/g wet weight of the liver | 0.317^a ± μmol/g wet weight of the liver | 12.34 ± 0.20 μmol/g wet weight of the liver | 12.56^a ± μmol/g wet weight of the liver | 682 | 855 | increased | dropped dramatically | dropped dramatically | dropped dramatically | enormous increase | dropped slightly | increase | concentrations of the other indicator substances (Hep G2 cells; Hep G2 cells, 10 days, AA 1 mM): remained unchanged; Cysteine (Hep G2 cells; [7]): 3.68 nmol/mg Protein; Cystine (Hep G2 cells; [7]): 0.130 nmol/mg Protein; GSH (Hep G2 cells; [7]): 14.9 nmol/mg Protein; Glutamine synthetase (Hep G2 cells; [7]): 0.41 units/mg protein; LDH (Hep G2 cells; [7]): 1.88 units/mg protein; NPSH (Hep G2 cells; [7]): 18.90 nmol/mg Protein; free radicals (Hep G2 cells; [7]): 0.210 nmol/mg Protein; number of cells (Hep G2 cells; [7]): 6 × 10^8 cells; vital cells (Hep G2 cells; [7]): 94% vital |

Source: patent US6441011B1, “Combined preparation consisting of 2-methylthiazolidine-2,4-dicarboxylic acid and paracetamol” (priority 1997, dated 2002)
